# Laboratory results as given in US20160281050A1, “METHODS FOR TREATING A CULTURE OF HAEMATOCOCCUS PLUVIALIS FOR CONTAMINATION USING SALT AND HYDROGEN PEROXIDE” (HELIAE DEVELOPMENT LLC, priority 2015, published 2016).
# Like-named read-outs stand apart in the source and are kept apart here.
# Columns and labels:
# chytrids = assay: % chytrid infection in flasks, salt treatment (Example 12); format: cell-based
# Description: This test was done side by side in flasks (0.1 L) and in reactors located in a greenhouse operating in conditions: reactor volume of 230 L; Daily PAR of 20 mol m^−2 d^−1; pH (not measured); and paddlewheel speed of 21 RPM. […] The flask cultures were mixed by shaking at 140 rpm and received 300-400 μmol/m^2 s of photosynthetically active radiation (PAR) in 12 hour light cycles and constant supply of 2.5% CO2. The motility of the culture was monitored by visual observation under a microscope. […] Nine 230 L reactors were also seeded with culture from bioreactor #2410 on the same day as the flasks and brought to 2 ppt concentration of salt. Once motility of the cells was reduced to <10% (day 3 of culture for flasks and day 2 for 230 L reactors) the level of salt was elevated to a point between 4-18 ppt and compared to the culture in two reactors remaining at 2 ppt salt. Flasks and 230 L reactors were monitored for percentage of cell lysis via visual observation under a microscope, culture dry weight (biomass accumulation in g/L), and percentage of chytrid infection via visual observation under a microscope. Carotenoid production, a proxy for determining astaxanthin, was quantified every other day of culture in the 230 L reactors using the UV method.
# [1] = system: Haematococcus pluvialis (Strain 1) green swimmer cells
# Description: (§1) An experiment was conducted to determine if treating a culture of Haematococcus pluvialis with hydrogen peroxide affects the live bacteria count. […] The culture in bioreactor #2210 was treated with 0.33 mL/L hydrogen peroxide 3% stock concentration (calculated concentration of 0.0099 mL/L) every 6 hours for the duration of the culture's green swimmer stage (90 hours). The culture in bioreactor #2230 was not treated to serve as a control for comparison. Samples were taken to assess motility, lysis, and the live bacteria count in the cultures at 11, 34, 52, and 66 hours.
# live bacteria = settings: 0.0099 mL/L every 6 hours
# Description: as §1
# [2] = dosed 0.015 mL/L; carboy and open raceway pond samples
# [3] = system: Haematococcus pluvialis (Strain 2); assay: % lysis and culture dry weight in flasks (Example 11)
# Description: Culture samples of Haematococcus pluvialis (Strain 2) were collected on the second day of culture from open raceway bioreactor #2410 operating in conditions: reactor volume of 150,000 L; Daily PAR of 9.77 mol m^−2 d^−1; pH of 7.3; and paddlewheel speed of 70%. Culture samples were distributed into flasks for culturing, consisting of duplicate untreated controls and duplicate treatments. […] Samples were taken from the flask cultures daily to quantify % lysis and % chytrid infection and cell dry weight was quantified every other day for a duration of 11 days.
# [4] = system: Haematococcus pluvialis (Strain 1) green swimmer cells; assay: Commercial scale cultures: lysis, carotenoid content (UV), average growth rate (Example 5); settings: for Maximum % Lysis of Culture: 0.007 mL/L every six hours
# Description: The findings from the flask test samples were then applied to commercial scale cultures of Haematococcus pluvialis (Strain 1) containing green swimmer cells that were transferred from open raceway pond bioreactor #2310 disposed in a greenhouse, using paddlewheel mixing, and operating in conditions: reactor volume of 55,000 L; Daily PAR of 42 mol m^−2 d^−1; pH of 7.5; and paddlewheel speed of 40%; to open raceway pond bioreactor #2420 disposed in a greenhouse, using paddlewheel mixing, operating in conditions: reactor volume of 140,000 L; Daily PAR of 40 mol m^−2 d^−1; pH of 7.3; and paddlewheel speed of 70%. Similarly, the culture in bioreactor #2320, operating in conditions: reactor volume of 60,000 L; Daily PAR of 42 mol m^−2 d^−1; pH of 7.5; and paddlewheel speed of 40%; was transferred by being split into pond bioreactors #2410 and 2430 operating in conditions: reactor volume of 150,000 L; Daily PAR of 40 mol m^−2 d^−1; pH of 7.3; and paddlewheel speed of 70%. […] Lysis was quantified upon harvest of the culture through visual observation of samples under a microscope. Carotenoid content of the cells was measured by UV method upon harvest, and the average growth rate of the culture was calculated based on periodic dry weight samples. The results were compared to data from previous culture runs in the same bioreactors or bioreactors with similar operating conditions during the same month (September 2014) at the same location.
molecule,measurement,setting,value
"[Cl-].[Na+] [NaCl, sodium chloride]",% Chytrid infection in Flasks,"chytrids; 2 ppt, 9 d",82 ± 17%
same,% Chytrid infection in Flasks,"chytrids; 2 ppt, 11 d",96 ± 4%
same,% Chytrid infection in Flasks,"chytrids; 4 ppt, 9 d",22 ± 20%
same,% Chytrid infection in Flasks,"chytrids; 4 ppt, 11 d",85 ± 16%
same,% Chytrid infection in Flasks,"chytrids; 5 ppt, 9 d",18 ± 16%
same,% Chytrid infection in Flasks,"chytrids; 5 ppt, 11 d",53 ± 9%
same,% Chytrid infection in Flasks,"chytrids; 6 ppt, 9 d",8 ± 11%
same,% Chytrid infection in Flasks,"chytrids; 6 ppt, 11 d",19 ± 27%
same,% Chytrid infection in Flasks,"chytrids; 7 ppt, 9 d",3 ± 5%
same,% Chytrid infection in Flasks,"chytrids; 7 ppt, 11 d",0 ± 0%
same,% Chytrid infection in Flasks,"chytrids; 8 ppt, 9 d",1 ± 1%
same,% Chytrid infection in Flasks,"chytrids; 8 ppt, 11 d",2 ± 2%
same,% Chytrid infection in Flasks,"chytrids; 9 ppt, 9 d",1 ± 1%
same,% Chytrid infection in Flasks,"chytrids; 9 ppt, 11 d",1 ± 1%
same,% Chytrid infection in Flasks,"chytrids; 10 ppt, 9 d",0 ± 0%
same,% Chytrid infection in Flasks,"chytrids; 10 ppt, 11 d",0 ± 0%
same,% Chytrid infection in Flasks,"chytrids; 11 ppt, 9 d",0 ± 0%
same,% Chytrid infection in Flasks,"chytrids; 11 ppt, 11 d",17 ± 24%
same,chytrid infection,chytrids; treatments between 7-10 ppt in flasks,5-10%
hydrogen peroxide [H2O2],Motility,[1],above 60%
same,lysis,[1],≤ 15%
same,reduction in the bacteria count,live bacteria; vs untreated control,approximately 1 log
same,Live Bacteria Count,live bacteria; 11 h,4.8 × 10^5 CFU/mL
same,Live Bacteria Count,live bacteria; 34 h,5.5 × 10^6 CFU/mL
same,Live Bacteria Count,live bacteria; 52 h,1.8 × 10^5 CFU/mL
same,Live Bacteria Count,live bacteria; 66 h,4.5 × 10^5 CFU/mL
same,time to concentration below detectable limits,[2],120 min
same,time to concentration below level expected to be effective against uniflagellates (calculated concentration 0.0075 mL/L),[2],30 min
same,% Lysis,"[3]; 0.0105 mL/L 1 time daily for 3 days, day 1",5.0 ± 5.0%
same,% Lysis,"[3]; 0.0105 mL/L 1 time daily for 3 days, day 2",3.3 ± 0.0%
same,% Lysis,"[3]; 0.0105 mL/L 1 time daily for 3 days, day 3",7.5 ± 1.2%
same,% Lysis,"[3]; 0.0105 mL/L 1 time daily for 3 days, day 4",0.8 ± 1.2%
same,% Lysis,"[3]; 0.0105 mL/L 1 time daily for 3 days, day 5",5.0 ± 0.0%
same,% Lysis,"[3]; 0.0105 mL/L 1 time daily for 3 days, day 6",4.2 ± 1.2%
same,% Lysis,"[3]; 0.0105 mL/L 1 time daily for 3 days, day 7",1.7 ± 2.4%
same,% Lysis,"[3]; 0.0105 mL/L 1 time every other day, day 1",5.0 ± 5.0%
same,% Lysis,"[3]; 0.0105 mL/L 1 time every other day, day 2",3.3 ± 2.4%
same,% Lysis,"[3]; 0.0105 mL/L 1 time every other day, day 3",4.2 ± 1.2%
same,% Lysis,"[3]; 0.0105 mL/L 1 time every other day, day 4",3.3 ± 0.0%
same,% Lysis,"[3]; 0.0105 mL/L 1 time every other day, day 5",3.3 ± 2.4%
same,% Lysis,"[3]; 0.0105 mL/L 1 time every other day, day 6",3.3 ± 2.4%
same,% Lysis,"[3]; 0.0105 mL/L 1 time every other day, day 7",3.3 ± 0.0%
same,% Lysis,"[3]; 0.0105 mL/L 1 time per day, day 1",5.0 ± 5.0%
same,% Lysis,"[3]; 0.0105 mL/L 1 time per day, day 2",2.5 ± 1.2%
same,% Lysis,"[3]; 0.0105 mL/L 1 time per day, day 3",5.8 ± 3.5%
same,% Lysis,"[3]; 0.0105 mL/L 1 time per day, day 4",4.2 ± 1.2%
same,% Lysis,"[3]; 0.0105 mL/L 1 time per day, day 5",4.2 ± 3.5%
same,% Lysis,"[3]; 0.0105 mL/L 1 time per day, day 6",0.0 ± 0.0%
same,% Lysis,"[3]; 0.0105 mL/L 1 time per day, day 7",2.4 ± 0.0%
same,cell lysis,"[3]; flasks across treatments, 0.0105 mL/L",below 10%
same,Maximum % Lysis of Culture,[4]; Bioreactor 2410,70%
same,Maximum % Lysis of Culture,[4]; Bioreactor 2420,20%
same,Maximum % Lysis of Culture,[4]; Bioreactor 2430,35%
same,reduction of the level of cell lysis,"[4]; at least 0.007 mL/L every 6 hours, flask tests and commercial scale cultures together",at least 60%
same,lysis,[4]; two of the commercial scale cultures treated with hydrogen peroxide,20-35%
